Literature values, collected in patent US5122608A, “Method for the preparation of substituted and unsubstituted 2,3-pyridine and quinolinedicarboxylic acids” (priority 1990, dated 1992).

Settings: ionization constant; representative mineral and organic acids

SMILES	pKa
O=C(O)C(Cl)(Cl)Cl [Trichloroacetic]	0.5
CCc1ccc(S(=O)(=O)O)cc1 [p-Ethylbenzene sulfonic]	0.9
